Data published in patent publication US4068074A, “Cephalosporin derivatives having at the 3-position of the cephem ring a heterocyclic thiomethyl group with a carboxy or sulfo group and at the 7-position of the cephem ring an α-heterocylic acylaminophenyl-acetamide group” (priority 1974, dated 1978).
Converted amounts (≈) assume the structure as drawn. Like-named read-outs stand apart in the source and are kept apart here.

What was measured:
Shigella sonnei II 37148 = experiment: MIC against bacteria (Table I), strain (12); format: cell-based; details: II37148; (12) Shigella sonnei II 37148; read-out: MIC
Source text: (§1) Now, for illustrating the excellent pharmacological effects of the compounds of this invention, the values of MIC (γ/ml.) of the compounds against various bacteria are shown in Table 1, in which the compounds of this invention used are shown by example numbers.

[1] = test system: Staphylococcus Shimanishi; experiment: MIC against bacteria (Table I), strain (17); format: cell-based; details: (17) Staphylococcus Shimanishi; read-out: MIC
Source text: as §1
(17) Staphylococcus Shimanishi

Salmonella enteritidis = experiment: MIC against bacteria (Table I), strain (10); format: cell-based; details: Salmonella enterica
Source text: as §1
(10) Salmonella enteritidis

[2] = test system: Staphylococcus aureus 209P; experiment: MIC against bacteria (Table I), strain (16); format: cell-based
Source text: as §1
(16) Staphylococcus aureus 209P

Proteus vulgaris 0X 19US = experiment: MIC against bacteria (Table I), strain (2); format: cell-based; details: 0X19US
Source text: as §1
(2) Proteus vulgaris 0X 19US

[3] = test system: Psuedomonas ovalis IMA 1002; experiment: MIC against bacteria (Table I), strain (6); format: cell-based; details: (6) Psuedomonas ovalis IMA 1002; read-out: MIC
Source text: as §1
(6) Psuedomonas ovalis IMA 1002

[4] = test system: Micrococcus flavus ATCC 10240; experiment: MIC against bacteria (Table I), strain (15); format: cell-based; details: ATCC10240
Source text: as §1
(15) Micrococcus flavus ATCC 10240

Staphylococcus Onuma = experiment: MIC against bacteria (Table I), strain (18); format: cell-based
Source text: as §1
(18) Staphylococcus Onuma

[5] = test system: Klebsiella pneumoniae ATCC 10031; experiment: MIC against bacteria (Table I), strain (8); format: cell-based; details: ATCC10031
Source text: as §1
(8) Klebsiella pneumoniae ATCC 10031

[6] = test system: Shigella flexneri 2a 1675; experiment: MIC against bacteria (Table I), strain (11); format: cell-based; details: 2A1675; (11) Shigella flexneri 2a 1675; read-out: MIC
Source text: as §1

Proteus vulgaris OXK US = experiment: MIC against bacteria (Table I), strain (1); format: cell-based; details: (1) Proteus vulgaris OXK US; read-out: MIC
Source text: as §1
(1) Proteus vulgaris OXK US

[7] = test system: Pseudomonas aeruginosa ATCC 8689; experiment: MIC against bacteria (Table I), strain (4); format: cell-based; details: ATCC8689; (4) Pseudomonas aeruginosa ATCC 8689; read-out: MIC
Source text: as §1
(4) Pseudomonas aeruginosa ATCC 8689

[8] = test system: Pseudomonas aeruginosa 99 (Gentamycin resistant); experiment: MIC against bacteria (Table I), strain (5); format: cell-based
Source text: as §1
(5) Pseudomonas aeruginosa 99 (Gentamycin resistant)

[9] = test system: Bacillus subtilis ATCC 6633; experiment: MIC against bacteria (Table I), strain (14); format: cell-based; details: ATCC6633; (14) Bacillus subtilis ATCC 6633; read-out: MIC
Source text: as §1
(14) Bacillus subtilis ATCC 6633

[10] = test system: Bacillus megatherium 10778; experiment: MIC against bacteria (Table I), strain (13); format: cell-based; details: (13) Bacillus megatherium 10778; read-out: MIC
Source text: as §1

[11] = test system: Escherichia coli kauffmann 0-1; experiment: MIC against bacteria (Table I), strain (7); format: cell-based; details: Escherichia coli
Source text: as §1
(7) Escherichia coli kauffmann 0-1

[12] = test system: Proteus mirabilis IXM OM-19; experiment: MIC against bacteria (Table I), strain (3); format: cell-based; details: IXMOM19; (3) Proteus mirabilis IXM OM-19; read-out: MIC
Source text: as §1
(3) Proteus mirabilis IXM OM-19

Salmonella typhi H901 W = experiment: MIC against bacteria (Table I), strain (9); format: cell-based; details: Salmonella enterica, TYPHI
Source text: as §1
(9) Salmonella typhi H901 W

[13] = Solubility of salts in water (Table 2); format: physicochemical; details: disodium salt, water, showing pH 7.4; read-out: Solubility: disodium salt dissolved in water in an amount of
Source text: An advantage of the compounds of this invention is that the salts, for example, sodium salts of these compounds are readily soluble in water at pH of living bodies, which makes them suitable for injections at high concentration. The solubility of these compounds are illustrated in Table 2 together with a control example.

[14] = (10) Salmonella enteritidis, read-out: MIC
[15] = (16) Staphylococcus aureus 209P, read-out: MIC
[16] = (2) Proteus vulgaris 0X 19US, read-out: MIC
[17] = (15) Micrococcus flavus ATCC 10240, read-out: MIC
[18] = (18) Staphylococcus Onuma, read-out: MIC
[19] = (8) Klebsiella pneumoniae ATCC 10031, read-out: MIC
[20] = (5) Pseudomonas aeruginosa 99 (Gentamycin resistant), read-out: MIC

## O=C(O)Cc1nnc(SCC2=C(C(=O)O)N3C(=O)[C@@H](NC(=O)[C@H](NC(=O)c4cnccc4O)c4ccccc4)[C@H]3SC2)s1 [Example 25, 7-[D-α-(4-hydroxynicotinoylamido)-α-phenylacetamido]-3-(5-carboxymethyl-1,3,4-thiadiazol-2-yl)thiomethyl-Δ^3-cephem-4-carboxylic acid]
Shigella sonnei II 37148
  MIC: 6.25 µg/mL (≈ 9.72 µM)
[1]
  MIC: 3.13 µg/mL (≈ 4.87 µM)
Salmonella enteritidis; [14]
  MIC: 0.19 µg/mL (≈ 0.296 µM)
[2]; [15]
  MIC: 0.78 µg/mL (≈ 1.21 µM)
Proteus vulgaris 0X 19US; Proteus vulgaris
  MIC: 1.56 µg/mL (≈ 2.43 µM)
[3]
  MIC: 12.5 µg/mL (≈ 19.4 µM)
[4]; Micrococcus flavus
  MIC: 6.25 µg/mL (≈ 9.72 µM)
Staphylococcus Onuma; Staphylococcus
  MIC: 6.25 µg/mL (≈ 9.72 µM)
[5]; Klebsiella pneumoniae
  MIC: 6.25 µg/mL (≈ 9.72 µM)
[6]
  MIC: 1.56 µg/mL (≈ 2.43 µM)
Proteus vulgaris OXK US
  MIC: < 0.09 µg/mL
[7]
  MIC: 12.5 µg/mL (≈ 19.4 µM)
[8]; Pseudomonas aeruginosa
  MIC: 6.25 µg/mL (≈ 9.72 µM)
[9]
  MIC: 0.39 µg/mL (≈ 0.607 µM)
[10]
  MIC: 0.39 µg/mL (≈ 0.607 µM)
[11]
  MIC: 3.13 µg/mL (≈ 4.87 µM)
[12]
  MIC: 0.39 µg/mL (≈ 0.607 µM)
Salmonella typhi H901 W
  MIC: 0.39 µg/mL (≈ 0.607 µM)
[13]
  solubility: > 200 mg/mL

## Cc1nc(SCC2=C(C(=O)O)N3C(=O)[C@@H](NC(=O)[C@H](NC(=O)c4cnccc4O)c4ccccc4)[C@H]3SC2)sc1SCC(=O)O [Example 24, 7-[D-α-(4-hydroxynicotinoylamido)-α-phenylacetamido]-3-(5-carboxymethylthio-4-methylthiazol-2-yl)thiomethyl-Δ^3-cephem-4-carboxylic acid]
Shigella sonnei II 37148
  MIC: 3.13 µg/mL (≈ 4.55 µM)
[1]
  MIC: 6.25 µg/mL (≈ 9.09 µM)
Salmonella enteritidis; [14]
  MIC: 0.78 µg/mL (≈ 1.13 µM)
[2]; [15]
  MIC: 0.78 µg/mL (≈ 1.13 µM)
Proteus vulgaris 0X 19US; [16]
  MIC: < 0.09 µg/mL
[3]
  MIC: 12.5 µg/mL (≈ 18.2 µM)
[4]; [17]
  MIC: 6.25 µg/mL (≈ 9.09 µM)
Staphylococcus Onuma; [18]
  MIC: 6.25 µg/mL (≈ 9.09 µM)
[5]; [19]
  MIC: 6.25 µg/mL (≈ 9.09 µM)
[6]
  MIC: 1.56 µg/mL (≈ 2.27 µM)
Proteus vulgaris OXK US
  MIC: < 0.09 µg/mL
[7]
  MIC: 12.5 µg/mL (≈ 18.2 µM)
[8]; [20]
  MIC: 6.25 µg/mL (≈ 9.09 µM)
[9]
  MIC: 0.39 µg/mL (≈ 0.567 µM)
[10]
  MIC: 0.78 µg/mL (≈ 1.13 µM)
[11]
  MIC: 3.13 µg/mL (≈ 4.55 µM)
[12]
  MIC: 0.19 µg/mL (≈ 0.276 µM)
Salmonella typhi H901 W
  MIC: 1.56 µg/mL (≈ 2.27 µM)
[13]
  solubility: > 200 mg/mL

## Cc1nc(SCC2=C(C(=O)O)N3C(=O)[C@@H](NC(=O)[C@H](NC(=O)c4cnccc4O)c4ccccc4)[C@H]3SC2)sc1CC(=O)O [Example 23, 7-[D-α-(4-hydroxynicotinoylamido)-α-phenylacetamido]-3-(5-carboxymethyl-4-methylthiazol-2-yl)thiomethyl-Δ^3-cephem-4-carboxylic acid]
Shigella sonnei II 37148
  MIC: 3.13 µg/mL (≈ 4.77 µM)
[1]
  MIC: 12.5 µg/mL (≈ 19.1 µM)
Salmonella enteritidis; ENTERITIDIS
  MIC: 0.39 µg/mL (≈ 0.595 µM)
[2]; Staphylococcus aureus, 209P
  MIC: 3.13 µg/mL (≈ 4.77 µM)
Proteus vulgaris 0X 19US; [16]
  MIC: < 0.09 µg/mL
[3]
  MIC: 12.5 µg/mL (≈ 19.1 µM)
[4]; [17]
  MIC: 12.5 µg/mL (≈ 19.1 µM)
Staphylococcus Onuma; [18]
  MIC: 12.5 µg/mL (≈ 19.1 µM)
[5]; [19]
  MIC: 6.25 µg/mL (≈ 9.53 µM)
[6]
  MIC: 1.56 µg/mL (≈ 2.38 µM)
Proteus vulgaris OXK US
  MIC: < 0.09 µg/mL
[7]
  MIC: 12.5 µg/mL (≈ 19.1 µM)
[8]; [20]
  MIC: 6.25 µg/mL (≈ 9.53 µM)
[9]
  MIC: 0.78 µg/mL (≈ 1.19 µM)
[10]
  MIC: 0.39 µg/mL (≈ 0.595 µM)
[11]
  MIC: 1.56 µg/mL (≈ 2.38 µM)
[12]
  MIC: 0.19 µg/mL (≈ 0.29 µM)
Salmonella typhi H901 W
  MIC: 1.56 µg/mL (≈ 2.38 µM)
[13]
  solubility: > 200 mg/mL
